Source: patent US6204293A, “Inhibitors of protein isoprenyl transferases” (University of Pittsburgh, priority 1998, dated 2001)
Counter-ions that a name gives are not always drawn.

target: T1, Rat brain protein farnesyltransferase (Rattus norvegicus, UniProt Q02293+Q04631); test: % inhibition of farnesylation, scintillation proximity assay with biotin-K Ras B fragment; assay type: biochemical; settings: Table 1; 1 × 10^-5 M
T1 construct: Rat brain protein farnesyltransferase activity is measured; from tissue; host or cells: rat brain
T1 sequence (Q02293 whole entry, the tested form may be a part, one chain of several): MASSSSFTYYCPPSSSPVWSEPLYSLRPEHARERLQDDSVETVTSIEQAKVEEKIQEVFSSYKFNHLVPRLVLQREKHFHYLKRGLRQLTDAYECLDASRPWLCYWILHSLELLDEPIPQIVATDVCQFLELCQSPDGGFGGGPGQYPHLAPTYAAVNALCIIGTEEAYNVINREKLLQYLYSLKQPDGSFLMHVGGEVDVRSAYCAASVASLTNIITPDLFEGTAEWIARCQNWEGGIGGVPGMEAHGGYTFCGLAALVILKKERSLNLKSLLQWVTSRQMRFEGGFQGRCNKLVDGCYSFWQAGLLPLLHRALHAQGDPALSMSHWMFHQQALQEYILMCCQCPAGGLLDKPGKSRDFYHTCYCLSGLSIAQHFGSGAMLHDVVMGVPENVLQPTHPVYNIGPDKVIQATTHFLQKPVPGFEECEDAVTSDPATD
How it was run: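 Scintillation proximity read-out of farnesylation, using a biotinylated K Ras B fragment (0.1 mM final) in place of biotin-lamin. Enzyme purified from rat brain; results given as % inhibition.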

Compound	% inhibition at 1 × 10^-5 M
CSCC[C@H](NC(=O)c1ccc(CNc2ccccc2N(C)C)cc1-c1ccccc1)C(=O)O [Example 672]	48%
CSCC[C@H](NC(=O)c1ccc(CNc2ccc(C(=O)c3ccccc3)cc2)cc1-c1ccccc1)C(=O)O [Example 702]	79%

same assay, conditions: Table 2; 1 × 10^-6 M

Compound	% inhibition at 1 × 10^-6 M
CCSC[C@H](CC1CCCCC1)NCc1ccc(C(=O)N[C@@H](CCSC)C(=O)OCOC(=O)C(C)(C)C)c(-c2ccccc2C)c1 [Example 764]	88%
CSCC[C@H](NC(=O)c1ccc(CN[C@@H](CC2CCCCC2)[C@@H](O)[C@@H](O)CC(C)C)cc1-c1ccccc1)C(=O)O [Example 716]	69%
CSCC[C@H](NC(=O)c1ccc(NC(=O)c2cnccc2C(F)(F)F)cc1-c1ccccc1C)C(=O)O [Example 481]	95%
Cc1ccccc1-c1cc(CN(C)C(C)(C)CC2CCCCC2)ccc1C(=O)N[C@@H](CCS(C)(=O)=O)C(=O)O [Example 314]	97%
CSCC[C@H](NC(=O)c1ccc(NC(=O)Cc2ccc(C)cc2)cc1-c1ccccc1C)C(=O)O [Example 541]	37%
CSCC[C@H](NC(=O)c1ccc(/C=C/CC2CCCCC2)cc1-c1ccccc1C)C(=O)O [Example 471]	94%
CSCC[C@H](NC(=O)c1ccc(CN(Cc2ccccc2)Cc2ccccc2)cc1-c1ccccc1)C(=O)O [Example 834]	55%
CSCC[C@H](NC(=O)c1ccc(CN(Cc2cncs2)S(C)(=O)=O)cc1-c1ccccc1C)C(=O)O [Example 878]	95%
CSCC[C@H](NC(=O)c1ccc(CNC(C)(C)Cc2ccccc2)cc1-c1ccccc1C)C(=O)O [Example 307]	82%
CSCC[C@H](NC(=O)c1ccc(NC(=O)[C@@H](N)COCc2ccccc2)cc1-c1ccccc1)C(=O)O [Example 503]	57%
CSCC[C@H](NC(=O)c1ccc(CN(C2CC2)C2(Cc3ccccc3)CCC2)cc1-c1ccccc1C)C(=O)O [Example 329]	98%
CSCC[C@H](NC(=O)c1ccc(CCc2ccc3ccccc3c2)cc1-c1ccccc1C)C(=O)O [Example 468]	96%

same assay, conditions: Table 3; 1 × 10^-7 M

Compound	% inhibition at 1 × 10^-7 M
CSCC[C@H](NC(=O)c1ccc(CN(c2ccccc2)S(=O)(=O)c2ccccc2)cc1-c1ccccc1C)C(=O)O [Example 769]	90%
CSCC[C@H](NC(=O)c1ccc(CCc2cccc(Oc3ccccc3)c2)cc1-c1ccccc1C)C(=O)[O-].[Li+] [Example 459]	92%
N-[4-(2-adamantan-1-ylpropoxy)-2-(2-methylphenyl)benzoyl]methionine, lithium salt [Example 563]	95%
CSCC[C@H](NC(=O)c1ccc(CN(CCC2CCCCC2)C(C)=O)cc1-c1ccccc1C)C(=O)[O-].[Li+] [Example 609]	95%

same assay, conditions: Table 4; 1 × 10^-8 M

Compound	% inhibition at 1 × 10^-8 M
CSCC[C@H](NC(=O)c1ccc(CN(Cc2ccccc2)c2cccc(C(C)=O)c2)cc1-c1ccccc1C)C(=O)O [Example 845]	85%
CCCCS(=O)(=O)N(Cc1ccc(C(=O)N[C@@H](CCSC)C(=O)O)c(-c2ccccc2C)c1)CC1CCCCC1 [Example 996]	80%
CSCC[C@H](NC(=O)c1ccc(CN(c2ccccc2)S(=O)(=O)c2ccc(C(F)(F)F)cc2)cc1-c1ccccc1C)C(=O)O [Example 780]	71%

same assay, conditions: read-out: % inhibition at 0.01 μM (**); Table 6; ** footnote 0.01 μM (title: 0.01 mM)

Compound	inhibition at 0.01 µM
CSCC[C@H](NC(=O)c1ccc(CO[C@@H](CC2CCCCC2)C(=O)N2CC[S+]([O-])CC2)cc1-c1ccccc1C)C(=O)O [Example 1055, N-[4-(3-cyclohexyl-N-thiomorpholin-S-oxide-4-ylpropion-2-yloxymethyl)-2-(2-methylphenyl)benzoyl]methionine, lithium salt]	85%
CSCC[C@H](NC(=O)c1ccc(COCc2ccc(C3CCCCC3)o2)cc1-c1ccccc1C)C(=O)O [Example 1090, [4-(2-(5-cyclohexylfuranyl)methoxymethyl)-2-(2-methylphenyl)-benzoyl]methionine, lithium salt]	81%

same assay, conditions: read-out: % inhibition at 0.1 μM (*); Table 6; * footnote 0.1 μM (title: 0.1 mM)

Compound	inhibition at 0.1 µM
CCCCC(CCC1CCCCC1)OCc1ccc(C(=O)N[C@@H](CCSC)C(=O)O)c(-c2ccccc2C)c1 (stereo partly drawn) [Example 1192, N-[4-(1-Cyclohexylheptan-3-yloxymethyl-2-(2-methylphenyl)benzoyl]methioninelithium salt]	91%

same assay, conditions: read-out: % inhibition at 1 × 10^-6 M

Compound	inhibition at 1 µM
CSCC[C@H](NC(=O)c1ccc(COC2CCN(C(=O)OC(C)(C)C)CC2)cc1-c1ccccc1C)C(=O)O [Example 808, N-[4-(1-t-butoxycarbonylpiperidin-4-yloxymethyl)-2-(2-methylphenyl)benzoyl]methionine lithium salt]	88%

same assay, conditions: read-out: % inhibition at 1 × 10^-6 M; Table 2; 1 × 10^-6 M

Compound	inhibition at 1 µM
CSCC[C@H](NC(=O)c1ccc(SCCc2ccccc2)cc1-c1ccccc1C)C(=O)O [Example 498, N-[4-(2-phenylethylthio)-2-(2-methylphenyl)benzoyl]methionine]	98%
CSCC[C@H](NC(=O)c1ccc(COCc2ccccc2)cc1-c1ccccc1C)C(=O)NS(=O)(=O)c1ccc(C)cc1 [Example 582, 4-methylbenzenesulfonyl N-2-[4-(benzyloxymethyl)-2-(2-methylphenyl)benzoyl]amino-4-methylthiobutanamide]	99%

same assay, conditions: read-out: % inhibition at 1 × 10^-7 M

Compound	inhibition at 0.1 µM
CCCCC(OCc1ccc(C(=O)N[C@@H](CCSC)C(=O)O)c(-c2ccccc2C)c1)c1ccco1 (stereo partly drawn) [Example 825, N-[4-(1-furan-2-ylpentyloxymethyl)-2-(2-methylphenyl)benzoyl]methionine lithium salt]	79%
COc1ccc(COCc2ccc(C(=O)N[C@@H](CCSC)C(=O)O)c(-c3ccccc3C)c2)cc1 [Example 935, N-[4-(4-methoxybenzyloxymethyl)-2-(2-methylphenyl)benzoyl]methionine lithium salt]	72%

same assay, conditions: read-out: % inhibition at 1 × 10^-7 M; Table 3; 1 × 10^-7 M

Compound	inhibition at 0.1 µM
CSCC[C@H](NC(=O)c1ccc(CSc2ncnc3[nH]ncc23)cc1-c1ccccc1C)C(=O)O [Example 746]	84%
CSCC[C@H](NC(=O)c1ccc(CSc2nc3ccccc3c(=O)[nH]2)cc1-c1ccccc1C)C(=O)O [Example 745]	93%
CSCC[C@H](NC(=O)c1ccc(CSc2ccccc2C(C)C)cc1-c1ccccc1C)C(=O)O [Example 739]	83%

same assay, conditions: read-out: % inhibition at 1 × 10^-8 M

Compound	inhibition at 0.01 µM
CSCC[C@H](NC(=O)c1ccc(COCc2cnc(-c3cccc(F)c3)s2)cc1-c1ccccc1C)C(=O)O [Example 898, N-[4-(2-(3-fluorophenyl)thiazol-5-ylmethoxymethyl)-2-(2-methylphenyl)benzoyl]methionine lithium salt]	82%

same assay, conditions: read-out: % inhibition at 1 × 10^-8 M; Table 4; 1 × 10^-8 M

Compound	inhibition at 0.01 µM
CSCC[C@H](NC(=O)c1ccc(OCCCCC2CCCCC2)cc1-c1ccccc1C)C(=O)O [Example 567, N-[4-(4-cyclohexyl)butoxy-2-(2-methylphenyl)benzoyl]methionine, lithium salt]	69%
CCCCC(Cc1ccccc1Cl)OCc1ccc(C(=O)N[C@@H](CCSC)C(=O)O)c(-c2ccccc2C)c1 (stereo partly drawn) [Example 943, N-[4-(1-(2-chlorophenyl)hexan-2-yloxymethyl)-2-(2-methylphenyl)benzoyl]methioninelithium salt]	79%
CSCC[C@H](NC(=O)c1ccc(CSCc2ccccc2)cc1-c1ccccc1C)C(=O)NS(=O)(=O)c1ccc(C)cc1 [Example 586, 4-methylbenzenesulfonyl N-2-[4-(benzylthiomethyl)-2-(2-methylphenyl)benzoyl]amino-4-methylthiobutanamide]	90%
